Results on four molecules are retold here after US20260315446A1, “ANTIFUNGAL COMPOUNDS AND USES THEREOF” (priority 2023, published 2026).

In brackets after ≈: the same amount, converted by molar mass. Like-named read-outs stand apart in the source and are kept apart here.

Data set [1] has as its system cryptococcosis. Particulars: cited from earlier work.
Data set [2] deals with IL-2 expression in primary mouse CD4+ T cells (mammalian calcineurin). Briefly: In vitro immunosuppressive activity, IL-2 expression (Example 3). In kind it is cell-based. The conditions noted are these: 72 h. On the procedure: Modifications at the C-22 position reduce inhibition of mammalian calcineurin signaling Mammalian calcineurin inhibition was then assessed and found to be reduced for these FK520 analogs. The inhibition of mammalian calcineurin was assessed by measuring the reduction of IL-2 expression from primary mouse CD4^+ T cells cultured in the presence of FK506, FK520, or an analog. Calcineurin activity is required for T cell activation and cytokine production, and IL-2 production serves as an effective measure of mammalian calcineurin activity. After culturing mouse CD4′ T cells for 72 h, IL-2 expression was analyzed by flow cytometry to evaluate the immunosuppressive activity of the analogs. […] However, compound concentrations that permit high IL-2 expression are less likely to result in cell death.
Spleen and lymph nodes from C57BL/6 mice were collected and homogenized through a 40-μm filter. Pan-CD4^+ T cells were enriched using the MagniSort Mouse CD4 T Cell Enrichment Kit (Invitrogen). Thereafter, CD4^+CD25^−CD62L^hiCD44^lo naïve CD4^+ T cells were FACS-sorted using a MoFlo Astrios cell sorter (Beckman Coulter). Naïve CD4^+ T cells were cultured in Iscove's Modified Dulbecco's Medium supplemented with 10% fetal bovine serum (FBS), penicillin (10 U/mL), streptomycin (10 μg/mL), glutamine (2 mM), gentamicin (50 μg/mL), and β-mercaptoethanol (55 μM). Cells were cultured for 72 h on anti-hamster IgG-coated plates with hamster anti-CD3s antibodies, hamster anti-CD28 antibodies, neutralizing anti-IL-4 antibodies, recombinant IL-12 (10 ng/mL), and recombinant IL-2 (50 U/mL). During this culture, cells were incubated with serially diluted drugs suspended in DMSO.

The subject of data set [3] is Cryptococcus neoformans. Briefly: MIC assay (Example 3). The conditions noted are these: Cryptococcus neoformans. The class given is cell-based. The protocol:
(§1) In vitro antifungal activity was assessed for all fungal strains in RPMI 1640 (Sigma-Aldrich R1383). MICs were measured using Clinical and Laboratory Standards Institute (CLSI) M38-A2 and M27-A3 standard in vitro antifungal susceptibility protocols. C. neoformans and A. fumigatus testing was performed at 37° C. MECs for A. fumigatus were recorded after 48 h of growth. C. albicans testing was performed at 30° C. with a uniform concentration of 2 μg/mL of fluconazole to sensitize the cells to calcineurin inhibition.
(§2) C. neoformans clinical isolate H99 and congenic-derived strain KN99α were used (see, Nielsen K, et al., 2003. Infect Immun 71:4831-4841). KN99α-derived frr1Δ deletion mutants with nourseothricin resistance markers as part of the Madhani deletion collection (NIH funding R01AI100272) were used. C. deneoformans strains used include JEC21 and derived C21F2 (CNB1-1) and C21F3 (frr1-3) strains (see, Odom A, et al., 1997. EMBO J 16:2576-2589; Moore T D, Edman J C. 1993. Mol Cell Biol 13:1962-1970; Fox D S, et al., 2001. Mol Microbiol 39:835-849). C. albicans strain SC5314 is the wild-type strain from which mutants YAG171 (rbp1/rbp1) and YAG237 (CNB1-1/CNB1) were derived (see, Cruz M C, et al., 2001. Antimicrob Agents Chemother 45:3162-3170). A. fumigatus strain akuB^Ku80 and a derived FKBP12 mutant fkbp12A were used during antifungal screening (see, Falloon K, et al., 2015. PLoS One 10:e0137869).

Data set [4] is described as follows: Solubility in microdilution broth assays. In kind it is physicochemical. The protocol: FIG. 12: Low-solubility compounds in MIC assay. Representative image of MIC assay read by plate reader with growth indicated on a range from 0.04 to 0.1 OD, black to green coloration. Starting concentration 50 μg/mL for all drugs. (A) H99 cultured in wells, and (B) wells contain RPMI media and no fungal cells with green coloration indicative of false positive growth caused by drug insolubility.
To assess antifungal activity, the panel of compounds was tested for fungal growth inhibition using minimum inhibitory concentration (MIC) assays against C. neoformans and C. albicans and minimum effective concentration (MEC) assays against A. fumigatus. […] MEC values against A. fumigatus ranged from 0.6 to 2.5 μg/mL for 10 of the analogs tested. […] Overall, a majority of these analogs maintain relatively potent antifungal activity across species and represent an active library for further investigation.

Data set [5] concerns C. neoformans growth versus IL-2 in murine T cells. Kind of data set: Therapeutic index score (immunosuppressive fold change to antifungal fold change relative to FK506). Also on record: species or system Cryptococcus neoformans; mouse. Particulars: Example 3; C. neoformans H99, FK506 = 1.0. An excerpt:
To assess the therapeutic potential for these compounds, it was important to develop an approach to score and rank them based on antifungal and immunosuppressive activities. The therapeutic index score (TIscore) is a ratio of the immunosuppressive fold change to the antifungal fold change, with all values relative to the baseline FK506 activity (FIG. 6B). A TIscore of >1.0 indicates an increase in fungal specificity because the fold change of the immunosuppressive reduction is greater than the antifungal activity reduction. As an example, JH-FK-05 is 20-fold reduced for antifungal activity but about 180-fold reduced for immunosuppression. Therefore, the TIscore of JH-FK-05 is 9.1 (TIscore=182/20). The top two analogs were JH-FK-02 (TIscore=9.7) and JH-FK-05 (TIscore=9.1). Due to the similar TIscore, JH-FK-05 was prioritized to advance to animal trials on the merit of more pronounced antifungal activity compared to JH-FK-02.
Based on the in vitro fungal and mammalian calcineurin inhibition data, the panel of FK520 analogs was assessed and ranked. Therapeutic index (TI) scores were used to quantify the effects of structural modification on the compounds (Table 8). Therapeutic index scores were calculated for each analog as the ratio of relative change in immunosuppressive and antifungal activities compared to FK506 as previously utilized (see, I-Toy M J, et at. 2022. mBio 13:e0104922). This ratio of therapeutic benefit and host toxicity, or fungal and mammalian calcineurin inhibition, allowed us to quantify and rank these analogs. […] This is the greatest TI found within the library and allowed us to identify JH-FK-08 as a lead candidate for an in vivo study. Tolerability of JH-FK-08 was assessed by monitoring animal responses to drug dosing across 14 days, including changes in weight, fur condition, and behavior. A maximum dose of 40 mg/kg was tested in once a day dosing, and due to solubility limitations, the tolerability of JH-FK-08 at 60 and 80 mg/kg total daily doses was assessed by dosing two equal doses per day (FIG. 14). […] It should be noted that analogs JH-FK-12 and JH-FK-23 are also promising candidates with respective Tis of 24.7 and 24.5.

Data set [6] has as its system Aspergillus fumigatus. Briefly: MEC assay (Example 3). The conditions noted are these: strain akuB^Ku80.
The test system of data set [7] is Candida albicans. Briefly: MIC assay (Example 3). In kind it is cell-based. Particulars: Candida albicans, SC5314; MIC80, 30° C. with 2 μg/mL fluconazole; read-out: MIC against Candida albicans (SC5314). On the procedure:
as §1, §2

Where [8] appears, read: MIC90, 37° C., read-out: MIC against Cryptococcus neoformans (H99).

As for `C=CC[C@@H]1/C=C(\C)C[C@H](C)C[C@H](OC)[C@H]2O[C@@](O)(C(=O)C(=O)N3CCCC[C@H]3C(=O)O[C@H](/C(C)=C/[C@@H]3CC[C@@H](O)[C@H](OC)C3)[C@H](C)[C@@H](O)CC1=NNC(C)=O)[C@H](C)C[C@@H]2OC` [JH-FK-01], in data set [1] (in vivo combination therapy with fluconazole), the “interaction with fluconazole in pulmonary cryptococcosis model” value is reported as “benefits from this synergistic interaction”. The “fungal burden in animal model of cryptococcosis” value in data set [1] (in vivo) is reported as “significantly reduced fungal burden”.
For `CC[C@@H]1/C=C(\C)C[C@H](C)C[C@H](OC)[C@H]2O[C@@](O)(C(=O)C(=O)N3CCCC[C@H]3C(=O)O[C@H](/C(C)=C/C3CC[C@@H](O)[C@H](OC)C3)[C@H](C)[C@@H](O)C/C1=N/NS(=O)(=O)c1ccc(C)cc1)[C@H](C)C[C@@H]2OC` (stereo partly shown) [JH-FK-13], the 50% inhibitory concentration (IC50) in data set [2] was > 200 nM. The MIC in data set [3] (Table 8, read-out: H99 MIC90) was > 50 µg/mL. In data set [4], the “solubility during microdilution broth assays” value is recorded as “exhibited solubility issues”.
Take `CC[C@@H]1/C=C(\C)C[C@H](C)C[C@H](OC)[C@H]2O[C@@](O)(C(=O)C(=O)N3CCCC[C@H]3C(=O)O[C@H](/C(C)=C/C3CC[C@@H](O)[C@H](OC)C3)[C@H](C)[C@@H](O)C/C1=N/NC(=O)c1ccc3ccccc3c1)[C@H](C)C[C@@H]2OC` (stereo partly shown) [JH-FK-15]: the Therapeutic index in data set [5] was found to be 3.1. Further, the 50% inhibitory concentration (IC50) in data set [2] was found to be 17.4 nM. In data set [6], the “MEC against Aspergillus fumigatus (akuB^Ku80)” value came out at 0.3 µg/mL. Further, the MIC in data set [7] worked out at 0.4 µg/mL (≈ 0.417 µM); in data set [3] (setting [8]), 3.1 µg/mL (≈ 3.23 µM); in data set [3] (Table 8, read-out: H99 MIC90), 3.1 µg/mL (≈ 3.23 µM). The “solubility during microdilution broth assays” value in data set [4] was “exhibited solubility issues”.
`CC[C@@H]1/C=C(\C)C[C@H](C)C[C@H](OC)[C@H]2O[C@@](O)(C(=O)C(=O)N3CCCC[C@H]3C(=O)O[C@H](/C(C)=C/C3CC[C@@H](O)[C@H](OC)C3)[C@H](C)[C@@H](O)C/C1=N/NC(=O)c1ccc(F)cc1)[C@H](C)C[C@@H]2OC` (stereo partly shown) [JH-FK-17] gave a Therapeutic index in data set [5] of 13.1. In data set [2], the 50% inhibitory concentration (IC50) was 9.4 nM. Besides, in data set [6], the “MEC against Aspergillus fumigatus (akuB^Ku80)” value was determined as 1.3 µg/mL. For the same molecule, the MIC was determined as 0.4 µg/mL (≈ 0.431 µM) in data set [7]; 0.4 µg/mL (≈ 0.431 µM) in data set [3] (setting [8]); 0.4 µg/mL (≈ 0.431 µM) in data set [3] (Table 8, read-out: H99 MIC90). Further, the “solubility during microdilution broth assays” value in data set [4] was “exhibited solubility issues”.
